Test results taken from article PMC8245078, “Development of novel benzofuran-isatin conjugates as potential antiproliferative agents with apoptosis inducing mechanism in Colon cancer” (Journal of Enzyme Inhibition and Medicinal Chemistry, 2021).
Like-named read-outs stand apart in the source and are kept apart here.

Columns and labels:
Assay in all cases: NCI single dose screening (10 µM)
Type in all cases: cell-based
HOP-62 = settings: Homo sapiens
NCI-H460 = settings: Homo sapiens
UO-31 = settings: Homo sapiens
PC-3 = settings: Homo sapiens
IGROV1 = settings: Homo sapiens
MCF7 = settings: Homo sapiens
SF-268 = settings: Homo sapiens
SK-MEL-2 = settings: Homo sapiens
HS 578 T = settings: Homo sapiens, read-out: GI% (cell growth inhibition percentage)
MDA-MB-468 = settings: Homo sapiens
786-0 = settings: Homo sapiens
SF-295 = settings: Homo sapiens
MDA-MB-435 = settings: Homo sapiens
TK-10 = settings: Homo sapiens
SR = settings: Homo sapiens, read-out: GI% (cell growth inhibition percentage)
MALME-3M = settings: Homo sapiens, read-out: GI% (cell growth inhibition percentage)
HT-29 = settings: Homo sapiens
HL-60(TB) = settings: Homo sapiens
A549/ATCC = settings: Homo sapiens
OVCAR-5 = settings: Homo sapiens
NCI/ADR-RES = settings: Homo sapiens, read-out: GI% (cell growth inhibition percentage)
HCT-15 = settings: Homo sapiens
LOX IMVI = settings: Homo sapiens, read-out: GI% (cell growth inhibition percentage)
SK-MEL-28 = settings: Homo sapiens
CCRF-CEM = settings: Homo sapiens, read-out: GI% (cell growth inhibition percentage)
CAKI-1 = settings: Homo sapiens
MOLT-4 = settings: Homo sapiens
SN12C = settings: Homo sapiens, read-out: GI% (cell growth inhibition percentage)
K-562 = settings: Homo sapiens
BT-549 = settings: Homo sapiens
OVCAR-3 = settings: Homo sapiens
MDA-MB-231/ATCC = settings: Homo sapiens
[1] = HOP-62, read-out: GI% (cell growth inhibition percentage)
[2] = NCI-H460, read-out: GI% (cell growth inhibition percentage)
[3] = UO-31, read-out: GI% (cell growth inhibition percentage)
[4] = PC-3, read-out: GI% (cell growth inhibition percentage)
[5] = IGROV-1, read-out: GI% (cell growth inhibition percentage)
[6] = MCF7, read-out: GI% (cell growth inhibition percentage)
[7] = SF-268, read-out: GI% (cell growth inhibition percentage)
[8] = SK-MEL-2, read-out: GI% (cell growth inhibition percentage)
[9] = MDA-MB-468, read-out: GI% (cell growth inhibition percentage)
[10] = 786-0, read-out: GI% (cell growth inhibition percentage)
[11] = SF-295, read-out: GI% (cell growth inhibition percentage)
[12] = MDA-MB-435, read-out: GI% (cell growth inhibition percentage)
[13] = TK-10, read-out: GI% (cell growth inhibition percentage)
[14] = HT-29, read-out: GI% (cell growth inhibition percentage)
[15] = HL-60, read-out: GI% (cell growth inhibition percentage)
[16] = A549, read-out: GI% (cell growth inhibition percentage)
[17] = OVCAR-5, read-out: GI% (cell growth inhibition percentage)
[18] = HCT-15, read-out: GI% (cell growth inhibition percentage)
[19] = SK-MEL-28, read-out: GI% (cell growth inhibition percentage)
[20] = CAKI-1, read-out: GI% (cell growth inhibition percentage)
[21] = MOLT-4, read-out: GI% (cell growth inhibition percentage)
[22] = K562, read-out: GI% (cell growth inhibition percentage)
[23] = BT-549, read-out: GI% (cell growth inhibition percentage)
[24] = OVCAR-3, read-out: GI% (cell growth inhibition percentage)
[25] = MDA-MB-231, read-out: GI% (cell growth inhibition percentage)

In the case of `Cc1c(C(=O)N/N=C2\C(=O)N(Cc3ccccc3)c3ccccc32)oc2ccccc12` [Compound 7d], the inhibition at 10 µM (HOP-62; [1]) was 20.8%, the inhibition at 10 µM (NCI-H460; [2]) was 25% and the inhibition at 10 µM (UO-31; [3]) was 33.6%. For the same compound, the inhibition at 10 µM (PC-3; [4]) was 15.7%, the inhibition at 10 µM (IGROV1; [5]) was 33.6% and the inhibition at 10 µM (MCF7; [6]) was 16.7%. The inhibition at 10 µM (SF-268; [7]) was < 10%, the inhibition at 10 µM (SK-MEL-2; [8]) was < 10% and the inhibition at 10 µM (HS 578 T; Hs-578T) was < 10%. The inhibition at 10 µM (MDA-MB-468; [9]) was < 10%, the inhibition at 10 µM (786-0; [10]) was < 10% and the inhibition at 10 µM (SF-295; [11]) was < 10%. The inhibition at 10 µM (MDA-MB-435; [12]) was < 10%, the inhibition at 10 µM (TK-10; [13]) was < 10% and the inhibition at 10 µM (SR) was < 10%. For the same compound, the inhibition at 10 µM (MALME-3M; Malme-3M) was < 10%, the inhibition at 10 µM (HT-29; [14]) was < 10% and the inhibition at 10 µM (HL-60(TB); [15]) was < 10%. The inhibition at 10 µM (A549/ATCC; [16]) was < 10%, the inhibition at 10 µM (OVCAR-5; [17]) was < 10% and the inhibition at 10 µM (NCI/ADR-RES) was 10.2%. The inhibition at 10 µM (HCT-15; [18]) was < 10%, the inhibition at 10 µM (LOX IMVI) was 13.8% and the inhibition at 10 µM (SK-MEL-28; [19]) was < 10%. For the same compound, the inhibition at 10 µM (CCRF-CEM) was < 10%, the inhibition at 10 µM (CAKI-1; [20]) was 19% and the inhibition at 10 µM (MOLT-4; [21]) was < 10%. For the same compound, the inhibition at 10 µM (SN12C) was < 10%, the inhibition at 10 µM (K-562; [22]) was < 10% and the inhibition at 10 µM (BT-549; [23]) was < 10%. The inhibition at 10 µM (OVCAR-3; [24]) was < 10% and the inhibition at 10 µM (MDA-MB-231/ATCC; [25]) was 18.3%.

With `Cc1c(C(=O)N/N=C2\C(=O)Nc3ccc(F)cc32)oc2ccccc12` [Compound 5b] the inhibition at 10 µM (HOP-62; HOP-62, Non-small cell lung cancer, single dose 10^−5 M, read-out: GI% (cell growth inhibition percentage)) was < 10%, the inhibition at 10 µM (NCI-H460; NCI-H460, Non-small cell lung cancer, single dose 10^−5 M, read-out: GI% (cell growth inhibition percentage)) was < 10% and the inhibition at 10 µM (UO-31; UO-31, Renal cancer, single dose 10^−5 M, read-out: GI% (cell growth inhibition percentage)) was 26.7%. The inhibition at 10 µM (PC-3; PC-3, Prostate cancer, single dose 10^−5 M, read-out: GI% (cell growth inhibition percentage)) was < 10%, the inhibition at 10 µM (IGROV1; IGROV-1, IGROV1, Ovarian cancer, single dose 10^−5 M, read-out: GI% (cell growth inhibition percentage)) was 33.7% and the inhibition at 10 µM (MCF7; MCF7, Breast cancer, single dose 10^−5 M, read-out: GI% (cell growth inhibition percentage)) was 19%. The inhibition at 10 µM (SF-268; SF-268, CNS cancer, single dose 10^−5 M, read-out: GI% (cell growth inhibition percentage)) was < 10%, the inhibition at 10 µM (SK-MEL-2; SK-MEL-2, Melanoma, single dose 10^−5 M, read-out: GI% (cell growth inhibition percentage)) was < 10% and the inhibition at 10 µM (HS 578 T; HS 578 T, Breast cancer, single dose 10^−5 M) was < 10%. The inhibition at 10 µM (MDA-MB-468; MDA-MB-468, Breast cancer, single dose 10^−5 M, read-out: GI% (cell growth inhibition percentage)) was < 10%, the inhibition at 10 µM (786-0; 786-0, Renal cancer, single dose 10^−5 M, read-out: GI% (cell growth inhibition percentage)) was < 10% and the inhibition at 10 µM (SF-295; SF-295, CNS cancer, single dose 10^−5 M, read-out: GI% (cell growth inhibition percentage)) was < 10%. The inhibition at 10 µM (MDA-MB-435; MDA-MB-435, Melanoma, single dose 10^−5 M, read-out: GI% (cell growth inhibition percentage)) was < 10%, the inhibition at 10 µM (TK-10; TK-10, Renal cancer, single dose 10^−5 M, read-out: GI% (cell growth inhibition percentage)) was < 10% and the inhibition at 10 µM (SR; Leukaemia, single dose 10^−5 M) was < 10%. The inhibition at 10 µM (MALME-3M; MALME-3M, Melanoma, single dose 10^−5 M) was 12.4%, the inhibition at 10 µM (HT-29; HT-29, Colon cancer, single dose 10^−5 M, read-out: GI% (cell growth inhibition percentage)) was < 10% and the inhibition at 10 µM (HL-60(TB); HL-60(TB), Leukaemia, single dose 10^−5 M, read-out: GI% (cell growth inhibition percentage)) was < 10%. The inhibition at 10 µM (A549/ATCC; A549/ATCC, Non-small cell lung cancer, single dose 10^−5 M, read-out: GI% (cell growth inhibition percentage)) was < 10%, the inhibition at 10 µM (OVCAR-5; OVCAR-5, Ovarian cancer, single dose 10^−5 M, read-out: GI% (cell growth inhibition percentage)) was < 10% and the inhibition at 10 µM (NCI/ADR-RES; Ovarian cancer, single dose 10^−5 M) was < 10%. The inhibition at 10 µM (HCT-15; HCT-15, Colon cancer, single dose 10^−5 M, read-out: GI% (cell growth inhibition percentage)) was < 10%, the inhibition at 10 µM (LOX IMVI; Melanoma, single dose 10^−5 M) was < 10% and the inhibition at 10 µM (SK-MEL-28; SK-MEL-28, Melanoma, single dose 10^−5 M, read-out: GI% (cell growth inhibition percentage)) was < 10%. For the same compound, the inhibition at 10 µM (CCRF-CEM; Leukaemia, single dose 10^−5 M) was < 10%, the inhibition at 10 µM (CAKI-1; CAKI-1, Renal cancer, single dose 10^−5 M, read-out: GI% (cell growth inhibition percentage)) was 19.5% and the inhibition at 10 µM (MOLT-4; MOLT-4, Leukaemia, single dose 10^−5 M, read-out: GI% (cell growth inhibition percentage)) was < 10%. The inhibition at 10 µM (SN12C; Renal cancer, single dose 10^−5 M) was < 10%, the inhibition at 10 µM (K-562; K562, K-562, Leukaemia, single dose 10^−5 M, read-out: GI% (cell growth inhibition percentage)) was < 10% and the inhibition at 10 µM (BT-549; BT-549, Breast cancer, single dose 10^−5 M, read-out: GI% (cell growth inhibition percentage)) was < 10%. For the same compound, the inhibition at 10 µM (OVCAR-3; OVCAR-3, Ovarian cancer, single dose 10^−5 M, read-out: GI% (cell growth inhibition percentage)) was < 10% and the inhibition at 10 µM (MDA-MB-231/ATCC; MDA-MB-231/ATCC, Breast cancer, single dose 10^−5 M, read-out: GI% (cell growth inhibition percentage)) was 14.6%.

`CCCN1C(=O)/C(=N\NC(=O)c2oc3ccccc3c2C)c2ccccc21` [Compound 7b] was tested, and the inhibition at 10 µM (HOP-62; [1]) was 18.1%, the inhibition at 10 µM (NCI-H460; [2]) was 15.6% and the inhibition at 10 µM (UO-31; [3]) was 34.3%. For the same compound, the inhibition at 10 µM (PC-3; [4]) was 10.8%, the inhibition at 10 µM (IGROV1; [5]) was 42.5% and the inhibition at 10 µM (MCF7; [6]) was 25%. The inhibition at 10 µM (SF-268; [7]) was < 10%, the inhibition at 10 µM (SK-MEL-2; [8]) was < 10% and the inhibition at 10 µM (HS 578 T; Hs-578T) was < 10%. For the same compound, the inhibition at 10 µM (MDA-MB-468; [9]) was < 10%, the inhibition at 10 µM (786-0; [10]) was < 10% and the inhibition at 10 µM (SF-295; [11]) was 11.9%. For the same compound, the inhibition at 10 µM (MDA-MB-435; [12]) was < 10%, the inhibition at 10 µM (TK-10; [13]) was < 10% and the inhibition at 10 µM (SR) was < 10%. The inhibition at 10 µM (MALME-3M; Malme-3M) was < 10%, the inhibition at 10 µM (HT-29; [14]) was < 10% and the inhibition at 10 µM (HL-60(TB); [15]) was 10.9%. The inhibition at 10 µM (A549/ATCC; [16]) was < 10%, the inhibition at 10 µM (OVCAR-5; [17]) was < 10% and the inhibition at 10 µM (NCI/ADR-RES) was 10.3%. For the same compound, the inhibition at 10 µM (HCT-15; [18]) was < 10%, the inhibition at 10 µM (LOX IMVI) was < 10% and the inhibition at 10 µM (SK-MEL-28; [19]) was < 10%. For the same compound, the inhibition at 10 µM (CCRF-CEM) was < 10%, the inhibition at 10 µM (CAKI-1; [20]) was 11.3% and the inhibition at 10 µM (MOLT-4; [21]) was < 10%. The inhibition at 10 µM (SN12C) was < 10%, the inhibition at 10 µM (K-562; [22]) was 11.4% and the inhibition at 10 µM (BT-549; [23]) was < 10%. The inhibition at 10 µM (OVCAR-3; [24]) was < 10% and the inhibition at 10 µM (MDA-MB-231/ATCC; [25]) was 29%.
